The values that follow come from US20070032520A1, “Indol-5-yl sulfonamide derivatives, their preparation and their use 5-ht-6 as modulators” (Laboratorios Del Dr. Esteve S.A, priority 2003, published 2007).

For `CN(C)CCn1ccc2cc(NS(=O)(=O)c3cccc4ccccc34)ccc21` [Example 3, N-[1-(2-dimethylaminoethyl)-1H-indole-5-yl]-naphthalene-1-sulfonamide], the melting point (commonly the temperature of the solid-liquid transition) was 179 to 181 °C.
In the case of `CN(C)CCn1ccc2cc(NS(=O)(=O)c3cccc4c(Cl)cccc34)ccc21` [Example 4, N-[1-(2-dimethylaminoethyl)-1H-indole-5-yl]-5-chloronaphthalene-1-sulfonamide] it was 172 to 174 °C; in that of `CN(C)CCn1ccc2cc(NS(=O)(=O)c3c(Cl)nc4sccn34)ccc21` [Example 11, N-[1-(2-dimethylaminoethyl)-1H-indole-5-yl]-6-chloroimidazo[2,1-b]thiazole-5-sulfonamide], 50 to 52 °C; in that of `CN(C)CCn1ccc2cc(NS(=O)(=O)c3cc(Cl)cc(Cl)c3)ccc21` [Example 12, N-[1-(2-dimethylaminoethyl)-1H-indole-5-yl]-3,5-dichlorobenzenesulfonamide], 124 to 126 °C.
With `CN(C)CCn1ccc2cc(NS(=O)(=O)c3cccc(Br)c3)ccc21` [Example 13, N-[1-(2-dimethylaminoethyl)-1H-indole-5-yl]-3-bromobenzenesulfonamide], the melting point fell in the range of 114 to 116 °C.
In the case of `CN(C)CCn1ccc2cc(NS(=O)(=O)c3cc(Cl)c(Cl)s3)ccc21` [Example 20, N-[1-(2-dimethylaminoethyl)-1H-indole-5-yl]-4,5-dichlorothiophene-2-sulfonamide] it was 120 to 123 °C.
